Assay results reported in patent US12600709B2, “Nonpeptide somatostatin type 5 receptor agonists and uses thereof” (Crinetics Pharmaceuticals, Inc., priority 2019, dated 2026).

Molecular target: T1, human somatostatin receptor subtype 5 (Homo sapiens, UniProt P35346)
T1 construct: expressed in transfected cells
Assay: cAMP assay for SST5R (inhibition of cAMP in CHO-K1 cells)
Assay type: cell-based
Details: Table A; inhibition of cAMP via human SST5 receptor; read-out: SST5 potency
Excerpt: General overview: All five SSTR subtypes are Gi coupled G-protein coupled receptors (GPCRs) that lead to decreases in intracellular cyclic AMP (cAMP) when activated by an agonist. Therefore, measurement of intracellular cAMP levels can be used to assess whether compounds of the invention are agonists of SSTR subtypes (John Kelly, Troy Stevens, W. Joseph Thompson, and Roland Seifert, Current Protocols in Pharmacology, 2005, 2.2.1-2.2). One example of an intracellular cAMP assay is described below.
cAMP Assay Protocol for SST5R:
Four days prior to the assay, 2,000 Chinese hamster ovary cells (CHO-K1, ATCC #CCL-61) stably expressing the human somatostatin receptor subtype 5 are plated in each well of a 96-well tissue culture-treated plate in Ham's F12 growth media (ThermoFisher #10-080-CM) supplemented with 10% donor bovine serum (Gemini Bio-Products #100-506), 100 U/mL penicillin; 100 µg/mL streptomycin; 2 mM L-glutamine (Gemini Bio-Products #400-110) and 0.25 mg/mL G418 Sulfate (GoldBio #108321-42-2). The cells are cultured at 37° C., 5% CO2 and 95% humidity. On the day of the assay, the media is aspirated and the cells are treated with 50 μL of 1.6 μM NKH477 (Sigma #N3290) plus various dilutions of compounds of the invention in assay buffer [1× Hank's Balanced Salt Solution (ThermoFisher #SH3058802), 0.5 mM HEPES pH 7.4, 0.1% bovine serum albumin, 0.2 mM 3-Isobutyl-1-methylxanthine (IBMX, VWR #200002-790)]. The cells are incubated for 20 minutes at 37° C. […] The cells are treated with 50 μL of lysis buffer (HRTF cAMP kit, Cisbio) for 30 minutes and then the lysate is diluted to 250 μL with assay buffer. The lysate is transferred to 384-well plates and cAMP detection and visualization antibodies are added and incubated for 1-24 hours at room temperature. The time-resolved fluorescent signal is read with a Tecan M1000Pro multiplate reader. The intracellular cAMP concentrations are calculated by regression to a standard curve and are plotted vs. the concentration of the compounds of the invention and the EC50 of the compounds are calculated using standard methods. All data manipulations are in GraphPad Prism v6 or v7.

T1 sequence (P35346 whole entry): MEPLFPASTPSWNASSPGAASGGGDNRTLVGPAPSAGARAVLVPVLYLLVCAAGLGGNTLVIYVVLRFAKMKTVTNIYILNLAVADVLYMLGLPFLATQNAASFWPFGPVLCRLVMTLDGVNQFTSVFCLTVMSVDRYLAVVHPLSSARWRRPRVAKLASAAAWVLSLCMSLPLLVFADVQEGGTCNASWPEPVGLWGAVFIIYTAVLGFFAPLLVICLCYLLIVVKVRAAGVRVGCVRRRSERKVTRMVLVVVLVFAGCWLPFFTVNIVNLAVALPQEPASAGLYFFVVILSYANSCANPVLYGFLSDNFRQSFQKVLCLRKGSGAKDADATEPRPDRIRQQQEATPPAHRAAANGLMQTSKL

| Structure (SMILES) | EC50 [nM] |
| --- | --- |
| CC(C)C(C)NC(=O)c1cncc(-c2cc(F)cc(F)c2)c1N1CC[C@](C)(N)C1 (stereo partly drawn) [1-38, 4-[(3S)-3-amino-3-methylpyrrolidin-1-yl]-5-(3,5-difluorophenyl)-N-(3-methylbutan-2-yl)pyridine-3-carboxamide] | < 10 |
| COC[C@]1(N)CCN(c2c(C(=O)N[C@@H](C)C3CC3)cnc(C#N)c2-c2cc(F)cc(F)c2)C1 [1-117, 4-[(3S)-3-amino-3-(methoxymethyl)pyrrolidin-1-yl]-6-cyano-N-[(1S)-1-cyclopropylethyl]-5-(3,5-difluorophenyl)pyridine-3-carboxamide] | 100 to 1000 |
| Cc1cccc2[nH]c(-c3cncc(C(=O)NCC4CC4)c3N3CC[C@](C)(N)C3)nc12 [2-13, 4-[(3S)-3-amino-3-methylpyrrolidin-1-yl]-N-(cyclopropylmethyl)-5-(4-methyl-1H-1,3-benzodiazol-2-yl)pyridine-3-carboxamide] | < 10 |
| Cc1cccc2[nH]c(-c3cncc(C(=O)N4CCC(C(C)(C)C)C4)c3N3CC[C@](C)(N)C3)nc12 (stereo partly drawn) [2-27, (3S)-1-[3-(3-tert-butylpyrrolidine-1-carbonyl)-5-(4-methyl-1H-1,3-benzodiazol-2-yl)pyridin-4-yl]-3-methylpyrrolidin-3-amine] | < 10 |
| Cc1cccc2[nH]c(-c3cncc(C(=O)N(C)C4CC4)c3N3CC[C@](C)(N)C3)nc12 [2-22, 4-[(3S)-3-amino-3-methylpyrrolidin-1-yl]-N-cyclopropyl-N-methyl-5-(4-methyl-1H-1,3-benzodiazol-2-yl)pyridine-3-carboxamide] | 10 to 100 |
| CC[C@H](NC(=O)c1cncc(-c2nc3c(C)cccc3[nH]2)c1N1CC[C@](C)(N)C1)C(F)(F)F [2-40, 4-[(3S)-3-amino-3-methylpyrrolidin-1-yl]-5-(4-methyl-1H-1,3-benzodiazol-2-yl)-N-[(2S)-1,1,1-trifluorobutan-2-yl]pyridine-3-carboxamide] | < 10 |
| N#Cc1ncc(C(=O)NC23CC(C2)C3)c(N2CC[C@](N)(CO)C2)c1-c1cc(F)cc(F)c1 (single isomer, unassigned) [1-99] | > 1000 |
| Cc1cccc2[nH]c(-c3cncc(C(=O)N4CCCC4)c3N3CC[C@](C)(N)C3)nc12 [2-2, (3S)-3-methyl-1-[3-(4-methyl-1H-1,3-benzodiazol-2-yl)-5-(pyrrolidine-1-carbonyl)pyridin-4-yl]pyrrolidin-3-amine] | 10 to 100 |
| C[C@@H](NC(=O)c1cnc(C#N)c(-c2cc(F)cc(F)c2)c1N1CC[C@](C)(N)C1)C(F)(F)F [1-222, 4-[(3S)-3-amino-3-methylpyrrolidin-1-yl]-6-cyano-5-(3,5-difluorophenyl)-N-[(2R)-1,1,1-trifluoropropan-2-yl]pyridine-3-carboxamide] | < 10 |
| C[C@H](NC(=O)c1ccnc(-c2cc(F)cc(F)c2)c1N1CC[C@](C)(N)C1)c1ccccc1 [3-3, 3-[(3S)-3-amino-3-methylpyrrolidin-1-yl]-2-(3,5-difluorophenyl)-N-[(1S)-1-phenylethyl]pyridine-4-carboxamide] | 100 to 1000 |
| Cc1cccc2[nH]c(-c3cncc(C(=O)Nc4ccccc4)c3N3CC[C@](C)(N)C3)nc12 [2-6, 4-[(3S)-3-amino-3-methylpyrrolidin-1-yl]-5-(4-methyl-1H-1,3-benzodiazol-2-yl)-N-phenylpyridine-3-carboxamide] | < 10 |
| CCN(C)C(=O)c1cncc(-c2nc3c(C)cccc3[nH]2)c1N1CC[C@](C)(N)C1 [2-3, 4-[(3S)-3-amino-3-methylpyrrolidin-1-yl]-N-ethyl-N-methyl-5-(4-methyl-1H-1,3-benzodiazol-2-yl)pyridine-3-carboxamide] | 10 to 100 |
| CC(N)C1CN(c2c(C(=O)NC34CC(C3)C4)cncc2-c2cc(F)cc(F)c2)C1 (stereo not shown) [1-63, 4-[3-(1-aminoethyl)azetidin-1-yl]-N-{bicyclo[1.1.1]pentan-1-yl}-5-(3,5-difluorophenyl)pyridine-3-carboxamide] | 10 to 100 |
| C[C@]1(N)CCN(c2c(C(=O)NC3CCC(F)(F)CC3)cnc(C(F)(F)F)c2-c2cc(F)cc(F)c2)C1 [1-211, 4-[(3S)-3-amino-3-methylpyrrolidin-1-yl]-N-(4,4-difluorocyclohexyl)-5-(3,5-difluorophenyl)-6-(trifluoromethyl)pyridine-3-carboxamide] | < 10 |
| Cc1cc(F)cc(-c2cncc(C(=O)NC3(C(F)(F)F)CCCC3)c2N2CC[C@](C)(N)C2)c1 [1-15, 4-[(3S)-3-amino-3-methylpyrrolidin-1-yl]-5-(3-fluoro-5-methylphenyl)-N-[1-(trifluoromethyl)cyclopentyl]pyridine-3-carboxamide] | < 10 |
| Cc1cccc2[nH]c(-c3cncc(C(=O)N(C)CC4CC4)c3N3CC[C@](C)(N)C3)nc12 [2-23, 4-[(3S)-3-amino-3-methylpyrrolidin-1-yl]-N-(cyclopropylmethyl)-N-methyl-5-(4-methyl-1H-1,3-benzodiazol-2-yl)pyridine-3-carboxamide] | 10 to 100 |
| N#Cc1ncc(C(=O)NC23CC(C2)C3)c(N2CC[C@H](N)C2)c1-c1cccc(Cl)c1 [1-84, 4-[(3S)-3-aminopyrrolidin-1-yl]-N-{bicyclo[1.1.1]pentan-1-yl}-5-(3-chlorophenyl)-6-cyanopyridine-3-carboxamide] | < 10 |
| C[C@H](NC(=O)c1cnc(C2CC2)c(-c2cc(F)cc(F)c2)c1N1CC[C@](C)(N)C1)C(F)(F)F [1-290, 4-[(3S)-3-amino-3-methylpyrrolidin-1-yl]-6-cyclopropyl-5-(3,5-difluorophenyl)-N-[(2S)-1,1,1-trifluoropropan-2-yl]pyridine-3-carboxamide] | < 10 |
| Cc1cccc2[nH]c(-c3cncc(C(=O)NC(C)C4CC4)c3N3CC[C@](C)(N)C3)nc12 (stereo partly drawn) [2-14, 4-[(3S)-3-amino-3-methylpyrrolidin-1-yl]-N-(1-cyclopropylethyl)-5-(4-methyl-1H-1,3-benzodiazol-2-yl)pyridine-3-carboxamide] | < 10 |
| COc1ncc(C(=O)NC2CCC(F)(F)CC2)c(N2CC[C@](C)(N)C2)c1-c1cc(F)cc(F)c1 [1-144, 4-[(3S)-3-amino-3-methylpyrrolidin-1-yl]-N-(4,4-difluorocyclohexyl)-5-(3,5-difluorophenyl)-6-methoxypyridine-3-carboxamide] | < 10 |
| N#Cc1ncc(C(=O)NC23CC(C2)C3)c(N2CC[C@H](N)C2)c1-c1cccc(F)c1 [1-65, 4-[(3S)-3-aminopyrrolidin-1-yl]-N-{bicyclo[1.1.1]pentan-1-yl}-6-cyano-5-(3-fluorophenyl)pyridine-3-carboxamide] | < 10 |
| Cc1cc(F)cc(-c2cncc(C(=O)NC3C4CC5CC(C4)CC3C5)c2N2CC[C@](C)(N)C2)c1 (stereo partly drawn) [1-18, N-(adamantan-2-yl)-4-[(3S)-3-amino-3-methylpyrrolidin-1-yl]-5-(3-fluoro-5-methylphenyl)pyridine-3-carboxamide] | 10 to 100 |
| Cc1ncc(C(=O)N[C@@H](C)C2CC2)c(N2CC[C@](C)(N)C2)c1-c1cnn(C2CC2)c1 [1-156, 4-[(3S)-3-amino-3-methylpyrrolidin-1-yl]-5-(1-cyclopropyl-1H-pyrazol-4-yl)-N-[(1S)-1-cyclopropylethyl]-6-methylpyridine-3-carboxamide] | 10 to 100 |
| C[C@H](NC(=O)c1cnc(C#N)c(-c2cc(F)cc(F)c2)c1N1CC[C@H](N)C1)c1ccccn1 [1-95, 4-[(3S)-3-aminopyrrolidin-1-yl]-6-cyano-5-(3,5-difluorophenyl)-N-[(1S)-1-(pyridin-2-yl)ethyl]pyridine-3-carboxamide] | < 10 |
| COc1ncc(C(=O)NC2CCC(F)(F)CC2)c(N2CC[C@H](N)C2)c1-c1cc(F)cc(F)c1 [1-150, 4-[(3S)-3-aminopyrrolidin-1-yl]-N-(4,4-difluorocyclohexyl)-5-(3,5-difluorophenyl)-6-methoxypyridine-3-carboxamide] | < 10 |
| Cc1cc(-c2cncc(C(=O)N[C@@H](C)C3CC3)c2N2CC[C@](C)(N)C2)cc(C)n1 [1-131, 4-[(3S)-3-amino-3-methylpyrrolidin-1-yl]-N-[(1S)-1-cyclopropylethyl]-2′,6′-dimethyl-[3,4′-bipyridine]-5-carboxamide] | < 10 |
| Cc1cccc2[nH]c(-c3cncc(C(=O)N4CCC(C(F)(F)F)C4)c3N3CC[C@](C)(N)C3)nc12 (stereo partly drawn) [2-44, (3S)-3-methyl-1-[3-(4-methyl-1H-1,3-benzodiazol-2-yl)-5-[3-(trifluoromethyl)pyrrolidine-1-carbonyl]pyridin-4-yl]pyrrolidin-3-amine] | 10 to 100 |
| CC(CC(F)(F)F)NC(=O)c1cncc(-c2cc(F)cc(F)c2)c1N1CC[C@](C)(N)C1 (stereo partly drawn) [1-60, 4-[(3S)-3-amino-3-methylpyrrolidin-1-yl]-5-(3,5-difluorophenyl)-N-(4,4,4-trifluorobutan-2-yl)pyridine-3-carboxamide] | < 10 |
